The numbers were not newly measured in patent US20020165233A1, “Quinoxaline containing medicaments for post exposure prophylaxis of an HIV infection” (priority 1999, published 2002), which cites them from elsewhere.

One data set has as its system HIV-1. The conditions noted are these: inhibitor given 1 hr before challenge, continued 20-30 weeks post challenge; cited from earlier work.
For another data set, the system named is SIV. The settings on record: administration 48 h before, 4 h after and 24 h after virus inoculation for 4 weeks; observed 56 weeks; cited from earlier work.
The next data set deals with RT-SHIV. The conditions noted are these: RT-SHIV infected rhesus monkeys; cited from earlier work.
The subject of data set [1] is HIV. The settings on record: prophylaxis with only zidovudine; case-control study; cited from earlier work.
Data set [2] relates to HIV. The settings on record: cited from earlier work.

Regarding `CCc1cc(CCc2nc3ccccc3o2)c(=O)[nH]c1C` [L-696,229], the “outcome of prophylaxis in treated animals” value with HIV-1 was “developed delayed infections”.

With `C[C@H](Cn1cnc2c(N)ncnc21)OCP(=O)(O)O` [PMPA], in the data set on SIV, the “protection against SIV infection” value is recorded as “full protection”. Further, the “effect of post exposure prophylaxis (PEP)” value in the data set with RT-SHIV was “vaccination effect protecting the animals against wild-type challenge”.

With `Cc1cn([C@H]2C[C@H](N=[N+]=[N-])[C@@H](CO)O2)c(=O)[nH]c1=O` [zidovudine], the “protective effect of prophylaxis” value with HIV [1] is 80%. Besides, the “suppression (change in viremia)” value in the data set on HIV [2] (after 7 days of treatment at 1000 mg per day (Loveday et al)) is listed as 1 log. In addition, the mean initial suppression in the data set on HIV [2] (conventionally used antiviral agents given alone) was ≤ 1 log.
